Consider one molecule from US12331051B2 (priority 2021, dated 2025).

Assay in all cases: Radioligand binding, cell membrane homogenates
Test [1] has as its target T1, Serotonin 2C receptor (5-HT2CR) (Homo sapiens, UniProt P28335).
T1 construct: expressed in transfected cells; host or cells: HEK-293
T1 sequence (P28335 33-458): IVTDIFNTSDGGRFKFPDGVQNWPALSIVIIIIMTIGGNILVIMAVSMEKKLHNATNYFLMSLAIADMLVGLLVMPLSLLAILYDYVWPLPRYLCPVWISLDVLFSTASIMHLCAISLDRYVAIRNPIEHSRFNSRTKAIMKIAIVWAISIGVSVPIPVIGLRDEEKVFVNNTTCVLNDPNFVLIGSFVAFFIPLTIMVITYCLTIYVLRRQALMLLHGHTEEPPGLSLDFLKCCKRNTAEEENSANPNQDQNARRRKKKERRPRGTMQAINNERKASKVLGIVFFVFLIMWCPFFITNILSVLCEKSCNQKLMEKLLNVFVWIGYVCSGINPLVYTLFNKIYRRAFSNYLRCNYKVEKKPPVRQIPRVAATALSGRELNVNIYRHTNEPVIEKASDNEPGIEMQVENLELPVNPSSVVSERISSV
The protocol:
(§1) Neuro-receptor binding and functional effects of the “E559 polymorph” was examined by analyzing binding affinity [Ki (nM)], functional agonist activity [EC50 (nM)], and functional antagonist activity [IC50 (nM)] against a panel of key receptors in neurophysiological disorders. Binding and functional assays were performed at “E559 polymorph” concentrations of 0.0003, 0.003, 0.01, 0.03, 0.1, 0.3, 1, and 10 μM. In binding assays, cell membrane homogenates, expressing each receptor target, were incubated with the corresponding radio-ligand in absence or presence of several concentration of the “E559 polymorph” compound. The measurement of binding affinity of the “E559 polymorph” is represented in TABLE XIII by Ki (nM) which was calculated as percent inhibition of the binding of a radioactively labeled reference ligand at each receptor. In functional assays the HEK-293 cells expressing each receptor target were suspended in buffer and distribute in microplates and incubated for 30 minutes at room temperature or 37° C. in the presence of buffer alone (basal control), the reference agonist or antagonist, or the “E559 polymorph. Following incubation, the cells were lysed and the appropriate fluorescent probe (Ca2+ flux, cAMP, or IP1) were added for 60 minutes to measure the fluorescence transfer at the appropriate wavelength using a microplate reader. The cellular agonist effect (EC50) was calculated as a percent of control response to a known reference agonist and the cellular antagonist effect (IC50) was calculated as a percent inhibition of control reference agonist response for each receptor.

The target in test [2] is T2, Alpha 1A adrenergic receptor (Homo sapiens, UniProt P35348).
T2 construct: expressed in transfected cells; host or cells: HEK-293
T2 sequence (P35348 1-466): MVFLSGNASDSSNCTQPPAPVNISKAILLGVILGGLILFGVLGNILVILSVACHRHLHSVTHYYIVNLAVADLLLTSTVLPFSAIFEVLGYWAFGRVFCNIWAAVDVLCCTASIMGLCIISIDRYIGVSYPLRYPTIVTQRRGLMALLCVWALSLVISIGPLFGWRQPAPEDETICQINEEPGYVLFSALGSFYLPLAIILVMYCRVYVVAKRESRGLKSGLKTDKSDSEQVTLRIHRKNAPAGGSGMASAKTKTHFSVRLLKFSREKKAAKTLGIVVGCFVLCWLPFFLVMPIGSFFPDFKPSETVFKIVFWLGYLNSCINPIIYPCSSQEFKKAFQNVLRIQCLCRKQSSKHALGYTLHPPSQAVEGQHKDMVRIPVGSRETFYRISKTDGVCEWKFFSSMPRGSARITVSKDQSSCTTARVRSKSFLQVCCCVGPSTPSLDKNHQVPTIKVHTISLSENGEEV
The protocol:
as §1

The target in test [3] is T3, 5-HT2A receptor (5-HT2AR) (Homo sapiens, UniProt P28223).
T3 construct: expressed in transfected cells; host or cells: HEK-293
T3 sequence (P28223 whole entry): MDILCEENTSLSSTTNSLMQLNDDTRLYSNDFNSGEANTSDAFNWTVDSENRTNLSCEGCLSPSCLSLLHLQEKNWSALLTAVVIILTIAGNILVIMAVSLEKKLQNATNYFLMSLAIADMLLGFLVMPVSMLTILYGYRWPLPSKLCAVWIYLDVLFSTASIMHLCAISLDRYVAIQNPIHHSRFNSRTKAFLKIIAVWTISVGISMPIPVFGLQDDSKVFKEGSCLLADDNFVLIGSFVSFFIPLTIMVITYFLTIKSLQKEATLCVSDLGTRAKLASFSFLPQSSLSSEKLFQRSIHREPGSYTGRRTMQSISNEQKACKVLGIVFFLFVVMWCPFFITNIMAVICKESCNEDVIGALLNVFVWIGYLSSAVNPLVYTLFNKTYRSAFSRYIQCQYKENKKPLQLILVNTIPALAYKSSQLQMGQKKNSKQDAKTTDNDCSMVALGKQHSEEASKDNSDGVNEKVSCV
The protocol: as §1

By Ki is commonly meant a measure of affinity in units of concentration, obtained from inhibition or displacement. Read a low Ki as higher affinity.

`CCN(CC)C(=O)[C@@H]1C=C2c3cccc4[nH]c(Br)c(c34)C[C@H]2N(C)C1` [E559, (5R, 8R)-2-Bromo-9,10-didehydro-N,N-diethyl-6-methylergoline-8-carboxamide hemi-D-tartrate]: the inhibition constant (Ki) in test [1] was 19 nM; in test [2], 59 nM; in test [3], 2.2 nM.
